Molecular target: T1, Tumor necrosis factor receptor superfamily member 6 (Rattus norvegicus) (UniProt Q63199)
T1 sequence (whole entry): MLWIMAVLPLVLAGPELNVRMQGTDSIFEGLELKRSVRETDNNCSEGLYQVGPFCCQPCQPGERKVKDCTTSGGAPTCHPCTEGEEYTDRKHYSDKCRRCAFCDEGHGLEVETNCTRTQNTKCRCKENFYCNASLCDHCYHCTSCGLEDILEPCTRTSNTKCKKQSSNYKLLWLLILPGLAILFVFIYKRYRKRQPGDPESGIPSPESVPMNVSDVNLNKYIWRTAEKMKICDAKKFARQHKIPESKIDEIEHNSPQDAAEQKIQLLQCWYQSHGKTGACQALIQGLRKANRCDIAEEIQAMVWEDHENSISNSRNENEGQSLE
Experiment: Inhibition of Fas-mediated cell death in oxygen and glucose deprived rat H9c2 cells at 10 uM treated 30 mins before oxygen and glucose deprivation measured after 6 hrs by DAPI staining
Format: cell-based

SMILES	inhibition
COC(=O)c1sccc1NC(=O)COc1ccc(Br)cc1	10.8%
COC(=O)c1c(NC(=O)CSc2ccc(Br)cc2)cnn1CCc1ccccc1	5.41%
COC(=O)c1sccc1NC(=O)CSc1ccccc1	9.48%
COC(=O)c1sccc1NC(=O)CCSc1ccccc1	5.24%
COC(=O)c1nn(CCc2ccccc2)cc1NC(=O)CCc1ccccc1	3.99%
COC(=O)c1cc(OC)c(OC)cc1NC(=O)CCSc1ccccn1	17.5%
COC(=O)c1c(NC(=O)CSc2ccc([N+](=O)[O-])cc2)cnn1CCc1ccccc1	4.5%
COC(=O)c1ccccc1NC(=O)CSc1ccccn1	7.9%
COC(=O)c1sccc1NC(=O)CSc1ccc(OC)cc1	10.8%
CN(C)C(=O)c1sccc1NC(=O)CSc1ccc(Br)cc1	10.4%
COC(=O)c1c(NC(=O)CSc2ccccc2N)cnn1CCc1ccccc1	5.4%
COC(=O)c1cc(OC)c(OC)c(OC)c1NC(=O)CCSc1ccccn1	13.5%
O=C(O)c1cc(Cl)ccc1NC(=O)C(Sc1ccc(Br)cc1)c1ccccc1 (stereo not given)	27.4%
COC(=O)c1sc2ncccc2c1NC(=O)CCSc1ccccn1	4.95%
O=C(CSc1ccc(Br)cc1)Nc1c(Br)cc(Br)cc1C(=O)O	16.1%
COC(=O)c1sccc1NC(=O)CSc1ccc(Br)cc1	4%
COC(=O)c1ccc(Cl)cc1NC(=O)CSc1ccc(Br)cc1	12%
COC(=O)c1sccc1NC(=O)CCSc1ccc(Br)cc1	16.9%
COC(=O)c1ccsc1NC(=O)CSc1ccccc1	8.38%
COC(=O)c1oc2cccc(Cl)c2c1NC(=O)CSc1ccccn1	7.33%

SMILES	inhibition
O=C(CSc1ccc(Br)cc1)Nc1ccccc1C(=O)O	30.9%
COC(=O)c1cc(Br)cc(Br)c1NC(=O)C(Sc1ccc(Br)cc1)c1ccccc1 (stereo not given)	21.3%
COC(=O)c1ccsc1NC(=O)CSc1ccc(Br)cc1	9%
COC(=O)c1ccc(Cl)cc1NC(=O)CCSc1ccccn1	12.8%
COC(=O)c1ccsc1NC(=O)CCSc1ccc(Br)cc1	6.45%
COC(=O)c1oc2ccccc2c1NC(=O)CSc1ccc(Br)cc1	7.57%
COC(=O)c1sc2ccccc2c1NC(=O)CSc1ccccc1	7.94%
COc1cc(C(=O)O)c(NC(=O)CCSc2ccccn2)c(OC)c1OC	28.6%
COc1cc(NC(=O)CSc2ccc(Br)cc2)c(C2=NCCO2)cc1OC	11.9%
COC(=O)c1cc(Br)cc(Br)c1NC(=O)CCSc1ccccn1	11.4%
COC(=O)c1c(NC(=O)CSc2cccc(OC)c2)cnn1CCc1ccccc1	4.17%
O=C(CSc1ccc(Br)cc1)Nc1c(C(=O)O)oc2ccccc12	8.47%
Cc1csc(C(=O)O)c1NC(=O)CSc1ccc(Br)cc1	14.3%
COC(=O)c1nn(CCc2ccccc2)cc1NC(=O)COc1ccc(Br)cc1	2.97%
COC(=O)c1sccc1NC(=O)CSc1cccc(OC)c1	6.18%
COC(=O)c1oc2cccc(Cl)c2c1NC(=O)CSc1ccc(Br)cc1	14.7%
COC(=O)c1ccccc1NC(=O)CSc1ccccc1	6.05%
O=C(CCSc1ccccn1)Nc1cc(Cl)ccc1C1=NCCO1	23.2%
COC(=O)c1sc2ccccc2c1NC(=O)CCSc1ccc(Br)cc1	8.57%
COC(=O)c1sccc1NC(=O)CN(C)c1ccccc1	7.57%

Source: ChEMBL document CHEMBL2417531, “The discovery of inhibitors of Fas-mediated cell death pathway using the combined computational method” (Bioorg Med Chem Lett, 2013)
